Results from ChEMBL document CHEMBL1201862, “PubChem BioAssay data set” (2004).
Calls of active or inactive are those of the source.

Key:
[1] = viability of HCT116 lacking mutant beta-catenin – cell-based, human colon tumor, dose response (AID 1045); format: functional;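 note: HCT116 colon tumor cells with beta catenin knocked out; cells exposed to compound for 60 hours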
[2] = viability of PTEN-deleted HCT116 cells – cell-based, HCT116 PTEN knockout, dose response (AID 1047); format: functional;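 note: HCT116 colon tumor cells with PTEN knocked out; cells exposed to compound for 60 hours before readout; potency for loss of cell viability measured by luminescence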
[3] = target: T1, Calpain-2 catalytic subunit (Sus scrofa, UniProt P43367); test: m-calpain protease blockers, concentration series – biochemical, fluorogenic peptide substrate, dose response (AID 1420); format: functional
T1 sequence (P43367 whole entry): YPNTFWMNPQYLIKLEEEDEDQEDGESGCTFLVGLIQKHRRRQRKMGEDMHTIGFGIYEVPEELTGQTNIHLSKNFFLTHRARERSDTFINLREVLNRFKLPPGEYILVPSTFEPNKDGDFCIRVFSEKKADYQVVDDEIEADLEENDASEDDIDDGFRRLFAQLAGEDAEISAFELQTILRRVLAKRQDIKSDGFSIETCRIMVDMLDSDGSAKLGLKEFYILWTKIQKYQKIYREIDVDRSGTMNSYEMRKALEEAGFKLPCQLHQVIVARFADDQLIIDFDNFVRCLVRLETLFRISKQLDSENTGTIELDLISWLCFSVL

[4] = target: T2, Heat shock factor protein 1 (Mus musculus, UniProt P38532); test: decrease of HSF1-responsive luciferase luminescence – cell-based, NIH3T3, dose retest, confirmation (AID 2382); format: functional;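 note: NIH3T3 fibroblasts with HSF1-driven luciferase reporter stressed by proteasome inhibitor MG132; luminescence from HSF1-driven luciferase expression after 8 hours of MG132 stress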
T2 sequence (P38532 whole entry): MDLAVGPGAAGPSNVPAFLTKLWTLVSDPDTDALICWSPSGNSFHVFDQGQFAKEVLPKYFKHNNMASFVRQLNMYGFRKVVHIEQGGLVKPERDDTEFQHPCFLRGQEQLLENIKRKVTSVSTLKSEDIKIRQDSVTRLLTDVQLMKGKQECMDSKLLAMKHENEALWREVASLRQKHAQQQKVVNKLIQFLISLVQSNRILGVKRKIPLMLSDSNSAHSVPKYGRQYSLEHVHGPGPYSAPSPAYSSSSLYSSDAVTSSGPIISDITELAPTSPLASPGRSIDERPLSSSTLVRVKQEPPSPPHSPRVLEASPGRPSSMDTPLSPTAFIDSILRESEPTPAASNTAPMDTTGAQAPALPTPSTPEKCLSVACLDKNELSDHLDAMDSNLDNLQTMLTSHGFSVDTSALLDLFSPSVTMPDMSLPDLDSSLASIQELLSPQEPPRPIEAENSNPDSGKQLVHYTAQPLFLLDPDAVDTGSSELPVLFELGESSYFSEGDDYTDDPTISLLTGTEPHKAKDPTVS

Large T antigen = Large T antigen (Simian virus 40, UniProt P03070); format: functional, Betapolyomavirus macacae;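 note: Confirmatory-stage PubChem screen for compounds that inhibit SV40 T antigen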
[5] = target: T3, Zinc finger protein mex-5 (Caenorhabditis elegans, UniProt Q9XUB2); test: potency of MEX-5 RNA-binding blockers – biochemical, C. elegans, fluorescence polarization, dose response (AID 1960)
T3 sequence (Q9XUB2 whole entry): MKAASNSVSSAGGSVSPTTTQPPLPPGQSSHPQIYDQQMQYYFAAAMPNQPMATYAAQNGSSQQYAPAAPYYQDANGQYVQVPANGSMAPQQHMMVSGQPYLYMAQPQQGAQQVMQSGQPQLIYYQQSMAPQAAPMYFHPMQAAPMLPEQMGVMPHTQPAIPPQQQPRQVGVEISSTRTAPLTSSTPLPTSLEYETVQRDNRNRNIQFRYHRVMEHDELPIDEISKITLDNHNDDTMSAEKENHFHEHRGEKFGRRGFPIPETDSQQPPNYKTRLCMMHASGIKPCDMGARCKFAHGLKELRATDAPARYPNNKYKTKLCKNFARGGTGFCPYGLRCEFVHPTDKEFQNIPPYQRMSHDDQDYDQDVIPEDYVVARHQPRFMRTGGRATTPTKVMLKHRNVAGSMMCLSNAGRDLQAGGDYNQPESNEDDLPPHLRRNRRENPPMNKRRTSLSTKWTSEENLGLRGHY

[6] = target: T4, RNA-binding protein pos-1 (Caenorhabditis elegans, UniProt G5EF15); test: disruptors of C. elegans POS-1 RNA interaction – biochemical, fluorescence polarization, dose response (AID 1964);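 note: purified POS-1 fused to maltose binding protein made in E. coli; potency of compounds blocking POS-1 binding to fluorescent RNA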
T4 sequence (G5EF15 whole entry): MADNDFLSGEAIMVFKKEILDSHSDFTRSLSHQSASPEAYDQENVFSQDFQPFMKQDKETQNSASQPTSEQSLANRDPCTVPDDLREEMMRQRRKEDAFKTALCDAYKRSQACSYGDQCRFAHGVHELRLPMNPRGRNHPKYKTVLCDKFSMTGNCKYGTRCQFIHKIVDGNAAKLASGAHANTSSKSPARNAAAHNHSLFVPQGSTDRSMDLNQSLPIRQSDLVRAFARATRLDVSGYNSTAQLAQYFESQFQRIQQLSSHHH

[7] = NIH3T3 cell viability loss – ATP luminescence, mouse fibroblasts, counter-screen, dose response (AID 2010); format: functional, cell-based;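 note: cells exposed to compound for about 90 hours before reading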
[8] = Trypanosoma cruzi growth suppression in host cells – NIH3T3 host cells, beta-gal luminescence, confirmation (AID 2044); format: functional, cell-based;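 note: intracellular parasites grown in NIH/3T3 mouse fibroblasts as host cells; luminescent beta-galactosidase reporter signal from transgenic T. cruzi replicating inside host cells; inhibitors lower the luminescence signal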
H4 = test: Luminescence Cell-Based Dose Response HTS to Identify Activators of 5'UTR Stem-Loop Driven Prion Protein mRNA Translation in H4 Neuroglioblastoma Cells. [Related pubchem assays: 1829 (Project Summary), 1814 (Primary HTS)]; format: functional; conditions: Homo sapiens
H9c2 = test: cells; format: functional, cell-based; conditions: Rattus norvegicus, H9c2, Myocardium
cells = format: functional
BJ [9] = test: BJ-TERT-LT-ST fibroblast viability loss – cell-based, RAS-independent, luminescence, dose response (AID 1935); format: functional; conditions: Homo sapiens;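 note: BJ fibroblasts immortalized with TERT plus LT and ST oncogenes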
BJ [10] = test: cells; format: functional, cell-based; conditions: Homo sapiens
BJ [11] = test: BJ-TERT fibroblast viability loss – cell-based, RAS-independent, luminescence, dose response (AID 1933); format: functional; conditions: Homo sapiens
[12] = DRD fibroblast viability loss – cell-based, non-viral oncogenic, luminescence, dose response (AID 1934); format: functional; conditions: Homo sapiens
[13] = Luminescence Cell-Based Dose Response HTS to Identify Activators of Luciferase Translation or Activity in H4 […] Cells. [Related pubchem assays: 1829 (Project Summary), 1814 (Primary HTS)]; format: functional
[14] = target: T5, Rac GTPase-activating protein 1 (Homo sapiens, UniProt Q9H0H5); test: blockers of MgcRacGAP-driven Rac1 GTP hydrolysis – biochemical, ADP Hunter fluorescence, primary and confirmatory, confirmation (AID 624330); format: functional
T5 sequence (Q9H0H5 whole entry): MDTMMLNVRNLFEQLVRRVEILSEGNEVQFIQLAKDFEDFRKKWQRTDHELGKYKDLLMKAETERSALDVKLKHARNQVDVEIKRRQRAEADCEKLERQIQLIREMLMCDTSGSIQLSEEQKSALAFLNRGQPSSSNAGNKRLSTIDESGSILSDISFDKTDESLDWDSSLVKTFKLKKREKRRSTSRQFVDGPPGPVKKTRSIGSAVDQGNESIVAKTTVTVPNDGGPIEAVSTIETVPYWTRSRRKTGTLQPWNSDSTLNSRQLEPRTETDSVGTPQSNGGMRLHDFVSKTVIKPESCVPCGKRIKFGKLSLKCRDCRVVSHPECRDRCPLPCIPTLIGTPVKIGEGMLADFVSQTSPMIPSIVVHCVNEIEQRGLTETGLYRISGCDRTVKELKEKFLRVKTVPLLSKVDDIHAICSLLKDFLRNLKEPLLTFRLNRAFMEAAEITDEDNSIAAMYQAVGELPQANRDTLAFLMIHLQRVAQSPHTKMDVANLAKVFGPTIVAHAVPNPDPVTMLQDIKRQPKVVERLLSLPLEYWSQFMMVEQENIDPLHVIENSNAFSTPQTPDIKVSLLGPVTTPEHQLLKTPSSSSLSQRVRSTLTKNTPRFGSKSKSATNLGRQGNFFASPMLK

Sequence of Large T antigen (P03070 whole entry): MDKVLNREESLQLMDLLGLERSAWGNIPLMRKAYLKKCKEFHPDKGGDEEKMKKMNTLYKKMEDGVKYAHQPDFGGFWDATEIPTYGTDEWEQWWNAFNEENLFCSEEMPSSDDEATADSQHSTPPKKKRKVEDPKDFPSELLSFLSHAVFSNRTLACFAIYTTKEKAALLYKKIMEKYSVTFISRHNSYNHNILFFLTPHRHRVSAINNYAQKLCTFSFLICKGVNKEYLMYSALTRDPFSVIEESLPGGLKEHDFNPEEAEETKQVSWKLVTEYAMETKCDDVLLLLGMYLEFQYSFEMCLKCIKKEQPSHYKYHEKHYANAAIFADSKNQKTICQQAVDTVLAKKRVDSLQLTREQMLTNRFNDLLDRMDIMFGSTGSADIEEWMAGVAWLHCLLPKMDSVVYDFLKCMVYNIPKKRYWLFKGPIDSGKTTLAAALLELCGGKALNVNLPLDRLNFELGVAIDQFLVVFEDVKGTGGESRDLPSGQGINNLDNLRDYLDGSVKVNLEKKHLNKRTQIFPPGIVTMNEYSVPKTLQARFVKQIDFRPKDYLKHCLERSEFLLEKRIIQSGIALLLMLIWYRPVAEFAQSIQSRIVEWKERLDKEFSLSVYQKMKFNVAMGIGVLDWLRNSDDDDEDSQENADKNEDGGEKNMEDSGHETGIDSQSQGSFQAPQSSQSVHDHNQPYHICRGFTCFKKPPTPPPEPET

## CCOC(=O)c1cccc(-n2c(-c3ccc(OC)cc3)nc3nc4ccccc4nc32)c1
[1]
  EC50: 13.5 µM (active)
[2]
  EC50: 15.3 µM (active)

## C[C@H](NS(=O)(=O)c1ccc(Cl)cc1)C(=O)OCC(=O)NC(=O)Nc1ccc2c(c1)OCCO2
[3]
  IC50: 14.2 µM (not active)

## O=C(OCCCN1CCOCC1)c1ccc(O)c(O)c1
[4]
  EC50: 34.7 µM (active)
Large T antigen
  IC50: 11.7 µM (active)

## CCOC(=O)C1Nc2ccc(C(F)(F)F)cc2C2C=CCC12 (configuration not stated)
[5]
  EC50: > 300 µM (not active)
[6]
  EC50: > 300 µM (not active)

## CC(C)Cn1c(N)c(C(=O)CSc2ncnc3sc4c(c23)CCCC4)c(=O)n(C)c1=O
[1]
  EC50: 12.2 µM (active)
[2]
  EC50: 12.1 µM (active)

## COc1ccc(N2C3=C(CC4=C2CC(C)(C)CC4=O)C(=O)CC(C)(C)C3)cc1
[1]
  EC50: 8.4 µM (active)
[2]
  EC50: 9.52 µM (active)
[7]
  EC50: 9.07 µM (active)
[8]
  EC50: 0.484 µM (active)

## O=C(N[C@@H](Cc1ccccc1)C(=O)OCc1ccccc1)c1[nH]cnc1C(=O)N1CCN(c2ccccc2)CC1
[3]
  IC50: 6.6 µM (not active)

## Nc1nc(NC(=O)c2cccs2)nn1-c1ccccc1
H4
  EC50: > 120 µM (not active)

## Cc1cc(O)nc2ccc(S(=O)(=O)Nc3ccc(O)cc3)cc12
Large T antigen
  IC50: 7.49 µM (active)

## CCCc1cc(O)nc(Nc2ccc(O)cc2)n1
Large T antigen
  IC50: 6.91 µM (active)

## CN(C(=O)CCc1nc(O)c2ccccc2n1)C1CCS(=O)(=O)C1 (configuration not stated)
H9c2
  IC50: > 79 µM (inactive)

## N=C(NOC(=O)CCCCCN1C(=O)c2ccccc2C1=O)c1ccccc1
[3]
  IC50: 48.1 µM (not active)

## CC(C)(C)c1ccc(OCCOc2ccc(C(C)(C)C)cc2NC=O)c(NC=O)c1
[7]
  EC50: > 60 µM (not active)
[8]
  EC50: 2.47 µM (active)
[3]
  IC50: 16.6 µM (not active)

## O=C(CN1CCN(c2ccc(O)cc2)CC1)Nc1ccc2c(c1)OCCO2
Large T antigen
  IC50: 8.22 µM (active)

## Cc1c(-c2ccc(Br)cc2)nc2ccccn12
cells
  IC50: 49.4 µM (active)

## N#CC1=C(N)C(C#N)(C#N)C(c2cccnc2)C2COCC=C12 (configuration not stated)
[5]
  EC50: > 300 µM (not active)
[6]
  EC50: > 300 µM (not active)

## c1ccc(-c2nc(-c3ccccn3)nc(-c3ccccn3)n2)nc1
[5]
  EC50: 54.6 µM (active)
[6]
  EC50: 31.1 µM (active)

## CCOC(=O)C1CCN(S(=O)(=O)c2cc(Br)cc3c2N(C(=O)C2CC2)CC3)CC1
[3]
  IC50: 11.5 µM (not active)

## COc1ccccc1OCCNC(=O)c1cc([N+](=O)[O-])cc([N+](=O)[O-])c1
cells
  IC50: 47.6 µM (active)
[7]
  EC50: > 60 µM (not active)
[8]
  EC50: 0.107 µM (active)

## O=C(Nc1ccc(N2CCCC2)cc1)c1cc(Cl)ccc1Cl
BJ [9]
  EC50: 146 µM (active)
BJ [10]
  EC50: > 150 µM (not active)
BJ [11]
  EC50: 13.6 µM (active)
[12]
  EC50: 15.8 µM (active)

## Nc1ccc(-c2nnc(O)c3ccccc23)cc1N
H9c2
  IC50: > 79 µM (inactive)

## O=C1NC(=O)[C@@H]2C3c4ccccc4C=CN3[C@H](C(=O)c3cccs3)[C@H]12 (some centres not stated)
[5]
  EC50: 16.4 µM (active)
[6]
  EC50: 24.6 µM (inconclusive)

## O=S(=O)(c1ccccc1)N1CCN(c2nc(-c3cccnc3)nc3ccccc23)CC1
H9c2
  IC50: 10.2 µM (active)

## CC(=O)c1ccc(NC(=O)CSc2nnc(-c3ccncc3)o2)cc1
[5]
  EC50: > 300 µM (not active)
[6]
  EC50: > 300 µM (not active)

## CN1C(=O)C(=CNCCCCCCCCCCC(=O)O)C(=O)N(C)C1=O
[5]
  EC50: > 300 µM (not active)
[6]
  EC50: > 300 µM (not active)

## Brc1ccc(-c2csc(NC3=NCCCCC3)n2)cc1
H4
  EC50: 36.6 µM (active)
[13]
  EC50: 18.9 µM (active)

## CS(=O)(=O)N(CC(O)Cn1c2ccccc2c2ccccc21)c1cccc2ccccc12 (configuration not stated)
[1]
  EC50: 18.1 µM (active)
[2]
  EC50: 16 µM (active)

## COc1ccccc1NS(=O)(=O)c1ccc2oc(SCC(=O)N3CCNC3=O)nc2c1
H9c2
  IC50: 15.8 µM (active)

## CCOc1ccc(Cl)cc1S(=O)(=O)N1CCN(c2ccc(F)cc2)CC1
[3]
  IC50: 7.1 µM (not active)

## COc1cc2c(cc1OC)C[N+](C)(C)CC2
Large T antigen
  IC50: 55.1 µM (active)

## Cc1[nH]c2ccc(-c3nnc(SCC(=O)c4ccc(F)cc4)o3)cc2c1C
[4]
  EC50: > 195 µM (not active)
[1]
  EC50: 31.2 µM (active)
[2]
  EC50: 33.4 µM (active)

## COc1ccc(NC(=O)c2c(Cl)n(C)c3ccccc23)cc1
BJ [9]
  EC50: > 150 µM (inconclusive)
BJ [10]
  EC50: 23 µM (active)
BJ [11]
  EC50: 22.7 µM (active)
[12]
  EC50: 25.3 µM (active)

## Nc1ncccc1OCc1ccc(Br)cc1
H4
  EC50: > 120 µM (not active)
[13]
  EC50: 1.05 µM (active)

## CCOC(=O)COc1cc(N)c(Cl)cc1Cl
cells
  IC50: 7.65 µM (active)

## COc1cc(/C=C/C(=O)OCC(=O)NNC(=O)c2cc(Cl)ccc2OC)ccc1O
[14]
  IC50: 60.5 µM (active)

## C[C@@H]1ON(C)[C@H]2C[C@H]3c4[nH]c5ccc(-c6ccc7c(c6)OCO7)cc5c4CCN3C[C@@H]12
H9c2
  IC50: > 79 µM (inactive)

## COc1ccccc1-c1cc(C(=O)N/N=C/C=C/c2ccccc2[N+](=O)[O-])c2ccccc2n1
H9c2
  IC50: > 79 µM (inactive)

## COc1ccc(/C=N/NC(=O)c2ccc(Br)cc2)cc1CN1CCOCC1
Large T antigen
  IC50: 15.8 µM (active)

## Oc1ccc(/C=N/Nc2nc(N3CCCC3)nc(N3CCCC3)n2)cc1O
[14]
  IC50: 57.3 µM (active)

## O/N=C(\c1ccc(Cl)cc1)c1cc2ccccc2o1
[3]
  IC50: 2.06 µM (not active)
